21 molecules from US10028992B2, “Methods of treating muscular dystrophy” (BOARD OF REGENTS OF THE NEVADA SYSTEM OF HIGHER EDUCATION …, priority 2012, dated 2018) can be followed below.

In this assay the test system is α7 integrin promoter. Kind of assay: muscle cell-based assay: α7βgal+/− myoblasts/myotubes, LacZ reporter, β-galactosidase cleavage of FDG. On the set-up: species or system mouse. To be noted: Myotubes; for Results in a α7+/− β-galactosidase assay, Myotubes, 0.5 uM: compound at 0.5 uM; for Results in a α7+/− β-galactosidase assay, Myotubes, 1 uM: compound at 1 uM; for Results in a α7+/− β-galactosidase assay, Myotubes, 5 uM: compound at 5 uM; for Results in a α7+/− β-galactosidase assay, Myotubes, 10 uM: compound at 10 uM; for Results in a α7+/− β-galactosidase assay, Myotubes, 20 uM: compound at 20 uM; for Results in a α7+/− β-galactosidase assay, Myotubes, 40 uM: compound at 40 uM. A digest of the protocol:
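Fluorescein generated from FDG by β-galactosidase reports α7 integrin promoter activity in differentiated myoblasts from α7+/− LacZ knock-in pups. Screening hits then went to dose-response, western blotting and a myostatin counterscreen.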

Take `N#Cc1nc(COc2ccccc2)oc1N1CCCC1` [drawing 466]: the “Results in a α7+/− β-galactosidase assay, Myotubes, 0.5 uM” value (“Results … 0.5 uM” below) is reported as −0.1447; the “Results in a α7+/− β-galactosidase assay, Myotubes, 1 uM” value (from here on “Results … 1 uM”) is −0.2423; the “Results in a α7+/− β-galactosidase assay, Myotubes, 5 uM” value (“Results … Myotubes, 5 uM” for short) is on record as −0.3897; the “Results in a α7+/− β-galactosidase assay, Myotubes, 10 uM” value (shortened to “Results … 10 uM”) is reported as −0.2892. The “Results in a α7+/− β-galactosidase assay, Myotubes, 20 uM” value (shortened to “Results … 20 uM”) is listed as −0.5781 and the “Results in a α7+/− β-galactosidase assay, Myotubes, 40 uM” value (shortened to “Results … 40 uM”) is −0.8948.
Consider `CCCc1nnc(SCC(=O)NC2CCCC2)n1CCOC` [drawing 467], for which the “Results … 0.5 uM” value was −0.09246; the “Results … 1 uM” value is given as 0.01763; the “Results … Myotubes, 5 uM” value is listed as −0.3088; the “Results … 10 uM” value was 0.4536. In addition, the “Results … 20 uM” value is given as −0.2024 and the “Results … 40 uM” value was −0.4694.
In the case of `Nc1cccc(/C=C/C(=O)O)c1` [drawing 468], the “Results … 0.5 uM” value is 0.04663; the “Results … 1 uM” value is reported as −0.01629; the “Results … Myotubes, 5 uM” value was −0.2823; the “Results … 10 uM” value was −0.1292. The “Results … 20 uM” value is listed as −0.1085 and the “Results … 40 uM” value is −0.2156.
Take `CCCC1C(c2cc(OC)c(OC)c(OC)c2)=Nc2c1c(=O)[nH]c(=O)n2Cc1ccccc1` (stereo not drawn) [drawing 469]: the “Results … 0.5 uM” value is listed as −0.09222; the “Results … 1 uM” value is recorded as −0.1313; the “Results … Myotubes, 5 uM” value is given as −0.484; the “Results … 10 uM” value is recorded as −0.34. Besides, the “Results … 20 uM” value is listed as −0.2089 and the “Results … 40 uM” value is −0.2856.
In the case of `CC(C)(C)c1ccc(C(=O)OCC(=O)Nc2sc3c(c2C#N)CCC3)cc1` [drawing 470], the “Results … 0.5 uM” value is listed as −0.03535; the “Results … 1 uM” value is −0.03363; the “Results … Myotubes, 5 uM” value was found to be 0.4586; the “Results … 10 uM” value was −0.1998. The “Results … 20 uM” value is −0.05439 and the “Results … 40 uM” value was −0.05938.
`CCOc1cc(C)c(S(=O)(=O)N2CCCCC2)cc1C` [drawing 471]: the “Results … 0.5 uM” value is reported as −0.1603; the “Results … 1 uM” value was −0.08287; the “Results … Myotubes, 5 uM” value is −0.1415; the “Results … 10 uM” value is reported as −0.1282. In addition, the “Results … 20 uM” value is 0.01353 and the “Results … 40 uM” value is recorded as −0.03791.
Take `Cc1cc(OCC(=O)NC(C)C)ccc1Cl` [drawing 472]: the “Results … 0.5 uM” value is −0.02692; the “Results … 1 uM” value is recorded as −0.04637; the “Results … Myotubes, 5 uM” value is on record as −0.3868; the “Results … 10 uM” value is given as −0.4196. Besides, the “Results … 20 uM” value is reported as −0.2513 and the “Results … 40 uM” value is reported as −0.2531.
In the case of `Cc1ccsc1CN(C)CC(=O)Cc1ccc([N+](=O)[O-])cc1Cl` [drawing 473], the “Results … 0.5 uM” value is recorded as −0.05036; the “Results … 1 uM” value is reported as −0.06852; the “Results … Myotubes, 5 uM” value was −0.2581; the “Results … 10 uM” value is on record as −0.2695. Moreover, the “Results … 20 uM” value was −0.1438 and the “Results … 40 uM” value is −0.2052.
On to `O=C1c2ccccc2C(=O)C1(CC(O)O)c1ccccc1` [drawing 474], for which the “Results … 0.5 uM” value was −0.08689; the “Results … 1 uM” value is on record as 0.05823; the “Results … Myotubes, 5 uM” value was −0.2367; the “Results … 10 uM” value is reported as −0.3763. Besides, the “Results … 20 uM” value is −0.3304 and the “Results … 40 uM” value was −0.4389.
On to `Cc1ccc(Cn2nnc3c(O)nc(C4CCCN(C(=O)c5ccco5)C4)nc32)cc1` (stereo not drawn) [drawing 475], for which the “Results … 0.5 uM” value is on record as −0.1767; the “Results … 1 uM” value is listed as −0.1614; the “Results … Myotubes, 5 uM” value is reported as −0.2961; the “Results … 10 uM” value is listed as −0.3051. For the same molecule, the “Results … 20 uM” value is −0.225 and the “Results … 40 uM” value is reported as −0.2551.
As to `Cc1ccc(NS(=O)(=O)c2ccc(-c3ccc(O)nn3)o2)c(C)c1` [drawing 477], the “Results … 0.5 uM” value is −0.04997; the “Results … 1 uM” value is 0.003075; the “Results … Myotubes, 5 uM” value is recorded as −0.3008; the “Results … 10 uM” value is −0.389. Besides, the “Results … 20 uM” value is −0.09047 and the “Results … 40 uM” value is −0.1539.
On to `CCCCN1CC(=O)N2Cc3[nH]c4ccccc4c3C[C@H]2C1=O` [drawing 478], for which the “Results … 0.5 uM” value was −0.1229; the “Results … 1 uM” value is recorded as −0.1432; the “Results … Myotubes, 5 uM” value is −0.3665; the “Results … 10 uM” value is reported as −0.4899. Besides, the “Results … 20 uM” value is reported as −0.2121 and the “Results … 40 uM” value is −0.2272.
For `CCC(CC)C(=O)Nc1c(C(=O)N2CCN(c3ccccc3)CC2)oc2ccccc12` [drawing 479], the “Results … 0.5 uM” value is recorded as −0.04763; the “Results … 1 uM” value was −0.04983; the “Results … Myotubes, 5 uM” value is −0.2904; the “Results … 10 uM” value is on record as −0.3853. Also, the “Results … 20 uM” value is −0.08708 and the “Results … 40 uM” value is −0.02043.
In the case of `Cc1nc(/C=C2\C(=O)Nc3ccccc32)c[nH]1` [drawing 480], the “Results … 0.5 uM” value worked out at 0.01879; the “Results … 1 uM” value is given as −0.05703; the “Results … Myotubes, 5 uM” value is 0.093; the “Results … 10 uM” value was determined as 0.007066. In addition, the “Results … 20 uM” value came to 0.01022 and the “Results … 40 uM” value is reported as −0.04283.
With `O=C(NCCc1ccc(Cl)cc1)C1CCCO1` (stereo not drawn) [drawing 481], the “Results … 0.5 uM” value worked out at 0.008299; the “Results … 1 uM” value was −0.0666; the “Results … Myotubes, 5 uM” value was determined as 0.2373; the “Results … 10 uM” value is reported as −0.07246. The “Results … 20 uM” value is recorded as −0.08414 and the “Results … 40 uM” value is −0.169.
As for `CCNC(=O)C(=O)Nc1cc2c3c(c1)CCN3C(=O)CC2` [drawing 482], the “Results … 0.5 uM” value is reported as 0.05071; the “Results … 1 uM” value is −0.07574; the “Results … Myotubes, 5 uM” value came to 0.4036; the “Results … 10 uM” value was −0.03505. Further, the “Results … 20 uM” value was −0.1926 and the “Results … 40 uM” value is −0.2686.
Turning to `Cc1cccc(NCC(=O)N/N=C/c2ccccn2)c1` [drawing 483], the “Results … 0.5 uM” value is given as 0.07633; the “Results … 1 uM” value is on record as −0.04251; the “Results … Myotubes, 5 uM” value was 0.2712; the “Results … 10 uM” value was −0.04805. The “Results … 20 uM” value came out at 0.03613 and the “Results … 40 uM” value was −0.1705.
With `COc1ccc(CN2CCNC(=O)C2CC(=O)NCCc2c[nH]c3ccccc23)c(OC)c1` (stereo not drawn) [drawing 484], the “Results … 0.5 uM” value is on record as −0.059; the “Results … 1 uM” value is on record as −0.1025; the “Results … Myotubes, 5 uM” value is given as 0.1466; the “Results … 10 uM” value is given as −0.2654. In addition, the “Results … 20 uM” value was −0.1345 and the “Results … 40 uM” value is given as −0.1806.
Consider `O=c1c2cc(-c3ccccc3)sc2nc2n1N=C(c1ccccc1)CS2` [drawing 485], for which the “Results … 0.5 uM” value came to 0.02668; the “Results … 1 uM” value is recorded as −0.1163; the “Results … Myotubes, 5 uM” value is on record as 0.0299; the “Results … 10 uM” value is listed as −0.3812. Moreover, the “Results … 20 uM” value is given as −0.1377 and the “Results … 40 uM” value is −0.1734.
For `Nc1ncnc(NCc2ccccc2)c1[N+](=O)[O-]` [drawing 486], the “Results … 0.5 uM” value amounted to 0.008395; the “Results … 1 uM” value is given as −0.1282; the “Results … Myotubes, 5 uM” value was determined as 0.2507; the “Results … 10 uM” value is recorded as −0.3338. Also, the “Results … 20 uM” value was −0.03158 and the “Results … 40 uM” value is on record as −0.2067.
For the molecule `O=CN1CCN(C(=O)CC(c2ccccc2)c2cc(Br)ccc2O)CC1` (stereo not drawn) [drawing 487], the “Results … 0.5 uM” value is −0.0643; the “Results … 1 uM” value is −0.1354; the “Results … Myotubes, 5 uM” value turned out to be 0.1295; the “Results … 10 uM” value is given as −0.2355. Further, the “Results … 20 uM” value is −0.0629 and the “Results … 40 uM” value is on record as −0.1726.
